The subject of assay [1] is heterogeneous MCF10ARas/MCF10AWT microtissues. In words: Emergent phenotypes in heterogeneous MCF10ARas/MCF10AWT microtissues in 3D lrECM culture. The assay is classed as cell-based. The following applies: over 24 hr in culture vs DMSO control; LY294002 20 μM, PD325901 200 nM, Sorafenib 10 μM, PIK-90 2 μM; DNase added immediately after sorting. The protocol:
Sorafenib was a gift from Kevan Shokat (UCSF0 and used at 10 μM. PIK-90 was purchased from Calbiochem and used at 2 μM. High activity DNase was purchased from Ambion. Ethidium homodimer-1 was purchased from Invitrogen and used at 1 μM.
The following antibodies were used for western blot: E-cadherin (BD Biosciences), tubulin (Sigma-Aldrich), phospho-Erk and phospho-Akt (Cell Signaling Technology), pan-Ras (Calbiochem), goat anti-mouse-HRP, and goat anti-rabbit-HRP (Thermo Scientific). The following antibodies were used for immunofluorescent staining: GM130, β-catenin (BD Biosciences), α6-integrin, laminin-5 (Millipore), cleaved caspase-3 (Cell Signaling Technology), Ki-67 (Sigma-Aldrich), gp135 (a gift from Keith Mostov, UCSF), Alexa Fluor 488- and 568-conjugated goat anti-mouse, anti-rat, and anti-rabbit antibodies (Invitrogen). F-actin was stained with Alexa Fluor 488- or 568-conjugated phalloidin (Invitrogen). LY294002 and PD325901 (Calbiochem) were used at 20 μM and 200 nM, respectively. TURBO DNase (Invitrogen) was used at a concentration of 10 U/ml.
Time-lapse images of aggregates were acquired on a Zeiss 200M inverted fluorescence microscope equipped with an XCite […] light source and a Hamamatsu camera. Field positions were programmed into Slidebook 5.0 software, and images were acquired at 30 min intervals. Samples were maintained in a humidified chamber at 37° C. and 5% CO2. Phenotypes were scored in Slidebook 5.0 software after acquisition. Microtissues that merged with other microtissues or single cells were not scored due to confounding effects on cell motility.
Apoptotic cells were excluded from phenotype quantification, as judged by cell morphology (FIG. 27, Panels A-E) or uptake of ethidium homodimer-1 (FIG. 28, Panels C, G, and H). Extruding microtis sues contained a single H2B-GFP-expressing cell pushed beyond the phase-bright boundary formed by the surrounding cells. Multicellular protrusions began with a single H2B-GFP-expressing cell that led the translation of the surrounding cells without becoming disconnected from the microtissue. H2B-GFP-expressing cells that broke away from tissues and moved alone were scored as protruding cells due to their altered morphology and motility.

Another assay has as its system Jurkat cells. In words: Time-lapse imaging of membrane dynamics of DNA-immobilized cells. The note with it: 1 uM latrunculin A; for membrane tubules from the cell surface: subsequent 100 uM nocodazole; for membrane microspikes: 100 uM nocodazole, 10 ng/mL PMA and 1.3 uM ionomycin. The assay is classed as cell-based. The protocol:
Cells incorporating lipid-DNA were allowed to settle onto patterned glass within a PDMS-based flow cell for 30 minutes. Only cells hybridized to the surface via DNA were retained when the surface was washed with PBS. Patterned cells were imaged at 37° C. on a Zeiss Axiovert 200M at 200× or 400× magnification using phase contrast settings.
Cells were incubated with 1 uM latrunculin A either 10 (after nocodazole treatment) or 40 minutes prior to timelapse imaging. Cells were incubated with 10 ng/mL phorbol 12-myristate 13-acetate (PMA) and 1.3 uM ionomycin 4 hours prior to lipid incorporation. Cells were incubated with 100 uM nocodazole, with or without addition of latrunculin, 10 minutes prior to imaging.
Using ImageJ, cells were picked automatically from 20× fields of view and subsequently binarized. For each time point, scanning down the y-axis, the horizontal slice with the greatest width was identified. For each cell, the coefficient of variation was calculated for this set of widths, and this statistic was used to characterize each cell's membrane motility for binning. Error bars signify standard error.

Regarding `O=C(NOC[C@H](O)CO)c1ccc(F)c(F)c1Nc1ccc(I)cc1F` [PD325901], in assay [1], the “formation/frequency of motile multicellular protrusions” value (shortened to “formation/frequency”) is on record as “blocked” and the “frequency of basal extrusions” value is listed as “blocked”.
Take `COc1ccc2c(c1OC)N=C(NC(=O)c1cccnc1)N1CCN=C21` [PIK-90]: in assay [1], the “formation/frequency” value is recorded as “reduced” and the “frequency of basal extrusions” value is “slightly increasing”.
With `CNC(=O)c1cc(Oc2ccc(NC(=O)Nc3ccc(Cl)c(C(F)(F)F)c3)cc2)ccn1` [Sorafenib], in assay [1], the “formation/frequency” value is “blocked” and the “frequency of basal extrusions” value was “blocked”.
For the molecule `C/C1=C/C(=O)O[C@@H]2C[C@@H](CC[C@H](C)/C=C\C=C\CC1)O[C@@](O)([C@@H]1CSC(=O)N1)C2` [latruncluin A, latrunculin A], in the assay on Jurkat cells, the “membrane tubules from the cell surface” value was “rapid growth of long tubules” and the membrane microspikes entry was “blocked the formation”.
In the same order, the values of `COC(=O)Nc1nc2ccc(C(=O)c3cccs3)cc2[nH]1` [nocodazole] are “retraction of the membrane tubules” and “completely blocked”.

These data come from patent US9650407B2, “Reprogramming of cellular adhesion” (The Regents of the University of California, priority 2011, dated 2017).
